Key:
[1] = test system: primary human hepatocytes; test: RNA-seq of primary human hepatocytes treated with 39 small molecules (pilot and validation)
hepatocytes = test: RNA-seq of hepatocytes treated with Phase III failure compounds; settings: hepatocytes
Procedure: RNA-seq was performed to determine the effects of the compounds on hepatocytes.
Significance was determined by the criteria of FPKM≥0.5, a log 2(fold-change)≥1, and a […].

CCCc1cc(=O)[nH]c(=S)[nH]1 [MT-127, Propylthiouracil]
significant modulation of gene expression ([1]; RNA-seq, p-value≤0.05, primary human hepatocytes, the modulated genes are listed in the block): significantly (p-value≤0.05) modulate
Number (#) of genes having significantly changed expression ([1]; pilot RNA-seq study of Example 2, significance: FPKM≥0.5, log 2(fold change)≥1, q-value ≤0.05): 8

COc1nc(C)cnc1NS(=O)(=O)c1cccnc1-c1ccc(-c2nnco2)cc1 [Zibotentan]
Number (#) of genes having significantly changed expression (hepatocytes; RNA-seq, Phase III failure compounds, significance: FPKM≥0.5, log 2(fold-change)≥1, q-value≥0.05 (so in the source)): 505
significant modulation of expression of disease genes (hepatocytes; RNA-seq, q≤0.05, genes in the value or listed in the block): significantly (q≤0.05) modulate expression
B2M expression, RNA-seq result (hepatocytes; gene B2M): −0.49
B9D2 expression, RNA-seq result (hepatocytes; gene B9D2): −0.43
BAAT expression, RNA-seq result (hepatocytes; gene BAAT): 0.17
BBOX1 expression, RNA-seq result (hepatocytes; gene BBOX1): −0.45
BBS10 expression, RNA-seq result (hepatocytes; gene BBS10): 0.26
BCHE expression, RNA-seq result (hepatocytes; gene BCHE): 0.02
BCKDHB expression, RNA-seq result (hepatocytes; gene BCKDHB): −0.16
BCKDK expression, RNA-seq result (hepatocytes; gene BCKDK): −0.21
BCO1 expression, RNA-seq result (hepatocytes; gene BCO1): −0.38
BCR expression, RNA-seq result (hepatocytes; gene BCR): 0.14
BLNK expression, RNA-seq result (hepatocytes; gene BLNK): 0.09
BLOC1S3 expression, RNA-seq result (hepatocytes; gene BLOC1S3): 0.15
BMPR1A expression, RNA-seq result (hepatocytes; gene BMPR1A): 0.51
BRAF expression, RNA-seq result (hepatocytes; gene BRAF): 0.82
BSCL2 expression, RNA-seq result (hepatocytes; gene BSCL2): −3.20
BTD expression, RNA-seq result (hepatocytes; gene BTD): 0.19
C4A expression, RNA-seq result (hepatocytes; gene C4A): 0.20
C9 expression, RNA-seq result (hepatocytes; gene C9): −0.13
C10orf10 expression, RNA-seq result (hepatocytes; gene C10orf10): −0.49
C10orf11 expression, RNA-seq result (hepatocytes; gene C10orf11): −0.62
C15orf41 expression, RNA-seq result (hepatocytes; gene C15orf41): 0.50
CA2 expression, RNA-seq result (hepatocytes; gene CA2): −0.44
CA5A expression, RNA-seq result (hepatocytes; gene CA5A): 0.23
CA12 expression, RNA-seq result (hepatocytes; gene CA12): 0.06
CAV1 expression, RNA-seq result (hepatocytes; gene CAV1): 0.15
CCND1 expression, RNA-seq result (hepatocytes; gene CCND1): 0.25
CD46 expression, RNA-seq result (hepatocytes; gene CD46): 0.05
CD81 expression, RNA-seq result (hepatocytes; gene CD81): −0.76
CD320 expression, RNA-seq result (hepatocytes; gene CD320): −0.95
CDAN1 expression, RNA-seq result (hepatocytes; gene CDAN1): 0.10
CDH1 expression, RNA-seq result (hepatocytes; gene CDH1): 0.50
CEP19 expression, RNA-seq result (hepatocytes; gene CEP19): −0.43
CEP83 expression, RNA-seq result (hepatocytes; gene CEP83): 0.33
CEP164 expression, RNA-seq result (hepatocytes; gene CEP164): 0.05
CEP290 expression, RNA-seq result (hepatocytes; gene CEP290): 0.01
CFB expression, RNA-seq result (hepatocytes; gene CFB): −0.28
CFHR2 expression, RNA-seq result (hepatocytes; gene CFHR2): −0.93
CHRM3 expression, RNA-seq result (hepatocytes; gene CHRM3): 0.20
CIDEC expression, RNA-seq result (hepatocytes; gene CIDEC): −0.40
CLDN1 expression, RNA-seq result (hepatocytes; gene CLDN1): 0.16
COG1 expression, RNA-seq result (hepatocytes; gene COG1): 0.25

— patent US20210254056A1, “IDENTIFICATION AND TARGETED MODULATION OF GENE SIGNALING NETWORKS” (CAMP4 THERAPEUTICS CORPORATION, priority 2017, published 2021)
